According to patent US8399206B2, “Methods for diagnosis, prognosis and methods of treatment” (Nodality, Inc., priority 2008, dated 2013):

Key:
AML blasts = assay: SCNP / phospho-flow modulated signaling assay, AML study No. 1 (PBMC at diagnosis, CR vs NR); format: cell-based, human
Source text: The present illustrative example represents how to analyze cells in one embodiment of the present invention. There are several steps in the process, such as the stimulation step, the staining step and the flow cytometry step. The stimulation step of the phospho-flow procedure can start with vials of frozen cells and end with cells fixed and permeabilized in methanol. Then the cells can be stained with an antibody directed to a particular protein of interest and then analyzed using a flow cytometer.
Frozen cells are thawed in a 37° C. water bath and gently resuspended in the vial and transferred to the 15 mL conical tube. The 15 mL tube is centrifuged at 930 RPM (200×g) for 8 minutes at room temperature. The supernatant is aspirated and the pellet is gently resuspended in 1 mL media A. The cell suspension is filtered through a 70 um cell strainer into a new 15 mL tube. The cell strainer is rinsed with 1 mL media A and another 12 ml of media A into the 15 mL tube. The cells are mixed into an even suspension. A 20 μL aliquot is immediately removed into a 96-well plate containing 180 μL PBS+4% FBS+CD45 Alexa 700+PI to determine cell count and viability post spin. After the determination, the 15 mL tubes are centrifuged at 930 RPM (200×g) for 8 minutes at room temperature. The supernatant is aspirated and the cell pellet is gently resuspended in 4 mL PBS+4 μL Amine Aqua and incubated for 15 min in a 37° C. incubator. 10 mL RPMI+1% FBS is added to the cell suspension and the tube is inverted to mix the cells. The 15 mL tubes are centrifuged at 930 RPM (200×g) for 8 minutes at room temperature. The cells are resuspended in Media A at the desired cell concentration (1.25×10^6/mL). For samples with low numbers of cells (<18.5×10^6), the cells are resuspended in up to 15 mL media. For samples with high numbers of cells (>18.5×10^6), the volume is raised to 10 mL with media A and the desired volume is transferred to a new 15 mL tube, and the cell concentration is adjusted to 1.25×10^6 cells/ml. 1.6 mL of the above cell suspension (concentration at 1.25×10^6 cells/ml) is transferred into wells of a multi-well plate. From this plate, 80 ul is dispensed into each well of a subsequent plate. The plates are covered with a lid (Nunc) and placed in a 37° C. incubator for 2 hours to rest.
A concentration for each stimulant that is five folds more (5×) than the final concentration is prepared using Media A as diluent. 5× stimuli are arrayed into wells of a standard 96 well v-bottom plate that correspond to the wells on the plate with cells to be stimulated.
Adding the stimulant: The cell plate(s) are taken out of the incubator and placed in a 37° C. water bath next to the pipette apparatus. The cell plate is taken from the water bath and gently swirled to resuspend any settled cells. With pipettor, the stimulant is dispensed into the cell plate and vortexed at “7” for 5 seconds. The deep well plate is put back into the water bath.
Adding Fixative: 200 μl of the fixative solution (final concentration at 1.6%) is dispensed into wells and then mixed on the titer plate shaker on high for 5 seconds. The plate is covered with foil sealer and incubated in a 37° C. water bath for 10 minutes. The plate is spun for 6 minutes at 2000 rpm at room temperature. The cells are aspirated using a 96 well plate aspirator (VP Scientific). The plate is vortexed to resuspend cell pellets in the residual volume. The pellet is ensured to be dispersed before the Methanol step (see cell permeabilization) or clumping will occur.
Cell Permeabilization: Permeability agent, for example methanol, is added slowly and while the plate is vortexing. To do this, the cell plate is placed on titer plate shaker and made sure it is secure. The plate is set to shake using the highest setting. A pipetter is used to add 0.6 mls of 100% methanol to the plate wells. The plate(s) are put on ice until this step has been completed for all plates.

AML BMMC leukemic blasts = assay: SCNP modulated signaling assay, AML study No. 2 (BMMC, CR vs NR, clinical sub-groups); format: cell-based, human
Protocol: Two independent sets of cryopreserved samples were analyzed sequentially. The first set consisted of 35 peripheral blood mononuclear cell (PBMC) samples derived from AML patients. The second set consisted of 134 cryopreserved bone marrow mononuclear cell (BMMC) samples derived from AML patients. These samples were the same samples used in the previous examples. Sample inclusion criteria required collection prior to initiation of induction chemotherapy, AML classification by the French-American-British (FAB) criteria as M0 through M7 (excluding M3) and availability of clinical annotations.
In the first study, induction chemotherapy consisted of at least one cycle of standard cytarabine-based induction therapy (i.e. daunorubicin 60 mg/m^2×3 days, cytarabine 100-200 mg/m^2 continuous infusion×7 days); responses were measured after one cycle of induction therapy. In the second study, cytarabine (200 mg/m^2 to 3 g/m^2) was used in combination with an anthracycline (daunorubicin or idarubicin) or an additional anti-metabolite (e.g. fludarabine or troxacitabine), and sometimes, an experimental agent (Table 16). […] Standard clinical and laboratory criteria were used for defining complete response (CR) in both studies. […] Classified as “CRp,” these samples were included in the CR group for all primary analysis. The univariate analyses were also repeated with the CRp patients classified into the NR sample group for sensitivity analysis.
Cyropreserved samples were thawed at […], washed and centrifuged in PBS, 10% FBS and 2 mM EDTA. The cells were re-suspended, filtered to remove debris and washed in RPMI cell culture media, 1% FBS, then stained with Live/Dead Fixable Aqua Viability Dye to distinguish non-viable cells. The cells were then re-suspended in RPMI, 1% FBS, aliquoted to 100,000 cells/condition and rested for 1-2 hours at 37° C. prior to SCNP assays. Each condition included two to five phenotypic markers for cell population gating (eg, CD45, CD33), up to three intracellular stains or up to three additional surface markers or control antibodies for an eight-color flow cytometry assay.
Functional assays were performed as previously described. Cells were incubated with modulators (Table 18), at 37° C. for 3-15 minutes, fixed with 1.6% paraformaldehyde (final concentration) for 10 minutes at 37° C., pelleted and permeabilized with 100% ice-cold methanol and stored at −80° C.
Data was acquired using FACS DIVA software on both LSR II and CANTO II Flow Cytometers (BD). For all analyses, dead cells and debris were excluded by forward scatter (FSC), side scatter (SSC), and Amine Aqua Viability Dye measurement. Leukemic cells were identified as cells that lacked the characteristics of mature lymphocytes (CD45^++, CD33^−) and that fit the CD45 and CD33 versus right-angle light-scatter characteristics consistent with myeloid leukemia cells.
The median fluorescence intensity (MFI) was computed for each node from the fluorescence intensity levels for the cells in the myeloid population. The MFI values were then used to compute a variety of metrics by comparing them to baseline or background values, including the unmodulated condition, cellular autofluorescence and antibody isotype controls. The following metrics were computed: • 1. Basal MFI (“Basal”)=log2(MFIUnmodulated Stained)−log2(MFIGated Unstained (Autofluoresence)), designed to measure the basal levels of a certain protein under unmodulated conditions. • 2.

[1] = Study No. 1 sensitivity analysis, CR samples
[2] = Study No. 1 sensitivity analysis, NR samples incl. CRp
[3] = Study No. 2, all patients, CR samples
[4] = Study No. 2, all patients, CR samples, negative = down regulation
[5] = Study No. 2, all patients, NR samples

## IL-10: interleukin 10, cytokine modulator
AML blasts; [1]
  Mean Value of CRs, p-Stat1 Total Phospho: 0.17
  Mean Value of CRs, p-Stat3 Total Phospho: 0.72
AML blasts; [2]
  Mean Value of NRs, p-Stat1 Total Phospho: 0.47
  Mean Value of NRs, p-Stat3 Total Phospho: 1.69
AML BMMC leukemic blasts; [3]
  Mean Value of CRs, p-Stat5 Fold: 0.09
AML BMMC leukemic blasts; [4]
  Mean Value of CRs, p-Stat3 Fold: 0.08
AML BMMC leukemic blasts; [5]
  Mean Value of NRs, p-Stat3 Fold: 0.39
AML BMMC leukemic blasts; Study No. 2, patients with de novo AML, CR samples
  Mean Value of CRs, p-Stat5 Fold: 0.06

## CCCCCCCCCCCCCC(=O)O[C@@H]1[C@@H](C)[C@@]2(O)[C@@H](C=C(CO)C[C@]3(O)C(=O)C(C)=C[C@@H]23)[C@@H]2C(C)(C)[C@]12OC(C)=O [PMA, reference compound]
AML BMMC leukemic blasts; [3]
  Mean Value of CRs, p-Erk Fold: 2.82
AML BMMC leukemic blasts; Study No. 2, patients less than 60 years old, CR samples
  Mean Value of CRs, p-CREB Total Phospho: 3.72
AML BMMC leukemic blasts; Study No. 2, patients less than 60 years old, NR samples
  Mean Value of NRs, p-CREB Total Phospho: 5.00

## GM-CSF: granulocyte macrophage stimulating factor
AML blasts; Staurosporine Resistant category vs other apoptosis categories
  increase in p-Akt and p-S6 levels: greatest increase in p-Akt and p-S6 levels
AML blasts; [1]
  Mean Value of CRs, p-Stat3 Total Phospho: 0.83
AML blasts; [2]
  Mean Value of NRs, p-Stat3 Total Phospho: 1.23
AML blasts; all samples of the Staurosporine Resistant apoptosis category
  Jak/Stat response (G-CSF: p-Stat3, p-Stat5; GM-CSF: p-Stat5): Robust Jak/Stat responses

## EPO
AML blasts; [1]
  Mean Value of CRs, p-Stat1 Total Phospho: 0.17
  Mean Value of CRs, p-Stat3 Total Phospho: 0.64
AML blasts; [2]
  Mean Value of NRs, p-Stat1 Total Phospho: 0.42
  Mean Value of NRs, p-Stat3 Total Phospho: 1.23

## IGF-1
AML blasts; [1]
  Mean Value of CRs, p-Plcγ2 Total Phospho: 1.82
AML blasts; Study No. 1 sensitivity analysis, CR samples, Alexa488 conjugate
  Mean Value of CRs, p-CREB Alexa488 Total Phospho: 1.11
AML blasts; Study No. 1 sensitivity analysis, CR samples, PE conjugate
  Mean Value of CRs, p-CREB PE Total Phospho: 1.42
AML blasts; [2]
  Mean Value of NRs, p-Plcγ2 Total Phospho: 2.76
AML blasts; Study No. 1 sensitivity analysis, NR samples incl. CRp, Alexa488 conjugate
  Mean Value of NRs, p-CREB Alexa488 Total Phospho: 1.62
AML blasts; Study No. 1 sensitivity analysis, NR samples incl. CRp, PE conjugate
  Mean Value of NRs, p-CREB PE Total Phospho: 2.29

## IL-6: interleukin 6, cytokine modulator
AML blasts; [1]
  Mean Value of CRs, p-CREB Total Phospho: 1.58
  Mean Value of CRs, p-Stat3 Total Phospho: 1.08
AML blasts; [2]
  Mean Value of NRs, p-CREB Total Phospho: 2.44
  Mean Value of NRs, p-Stat3 Total Phospho: 1.81
AML BMMC leukemic blasts; [3]
  Mean Value of CRs, p-Stat3 Total Phospho: 1.76
  Mean Value of CRs, p-Stat5 Fold: 0.13
AML BMMC leukemic blasts; [4]
  Mean Value of CRs, p-Stat1 Fold: −0.01
  Mean Value of CRs, p-Stat3 Fold: 0.12
AML BMMC leukemic blasts; [5]
  Mean Value of NRs, p-Stat1 Fold: 0.26
  Mean Value of NRs, p-Stat3 Fold: 1.09
  Mean Value of NRs, p-Stat3 Total Phospho: 2.98
  Mean Value of NRs, p-Stat5 Fold: 0.55

B1: M-CSF (protein, UniProt P09603 33-554, looked up)
Macrophage colony-stimulating …: EEVSEYCSHMIGSGHLQSLQRLIDSQMETSCQITFEFVDQEQLKDPVCYLKKAFLLVQDIMEDTMRFRDNTPNAIAIVQLQELSLRLKSCFTKDYEEHDKACVRTFYETPLQLLEKVKNVFNETKNLLDKDWNIFSKNCNNSFAECSSQDVVTKPDCNCLYPKAIPSSDPASVSPHQPLAPSMAPVAGLTWEDSEGTEGSSLLPGEQPLHTVDPGSAKQRPPRSTCQSFEPPETPVVKDSTIGGSPQPRPSVGAFNPGMEDILDSAMGTNWVPEEASGEASEIPVPQGTELSPSRPGGGSMQTEPARPSNFLSASSPLPASAKGQQPADVTGTALPRVGPVRPTGQDWNHTPQKTDHPSALLRDPPEPGSPRISSLRPQGLSNPSTLSAQPQLSRSHSSGSVLPLGELEGRRSTRDRRSPAEPEGGPASEGAARPLPRFNSVPLTDTGHERQSEGSFSPQLQESVFHLLVPSVILVLLAVGGLLFYRWRRRSHQEPQRADSPLEQPEGSPLTQDDRQVELPV
AML blasts; [1]
  Mean Value of CRs, p-Akt Fold: −0.16
  Mean Value of CRs, p-CREB Total Phospho: 1.26
  Mean Value of CRs, p-Plcγ2 Total Phospho: 1.79
AML blasts; [2]
  Mean Value of NRs, p-Akt Fold: 0.05
  Mean Value of NRs, p-CREB Total Phospho: 1.76
  Mean Value of NRs, p-Plcγ2 Total Phospho: 2.8

B2: CD40L (protein, UniProt P29965 113-261, looked up)
CD40 ligand, soluble form: MQKGDQNPQIAAHVISEASSKTTSVLQWAEKGYYTMSNNLVTLENGKQLTVKRQGLYYIYAQVTFCSNREASSQAPFIASLCLKSPGRFERILLRAANTHSSAKPCGQQSIHLGGVFELQPGASVFVNVTDPSQVSHGTGFTSFGLLKL
AML blasts; [1]
  Mean Value of CRs, p-CREB Total Phospho: 1.37
  Mean Value of CRs, p-Erk Total Phospho: 1.18
AML blasts; [2]
  Mean Value of NRs, p-CREB Total Phospho: 2.67
  Mean Value of NRs, p-Erk Total Phospho: 1.62
